The text below walks through data of publication PMC10711598, “Erythromycin, retapamulin, pyridoxine, folic acid, and ivermectin inhibit cytopathic effect, papain-like protease, and M^PRO enzymes of SARS-CoV-2” (Frontiers in Cellular and Infection Microbiology, 2023).

Data set [1] concerns the target SARS-CoV-2 papain-like protease (Severe acute respiratory syndrome coronavirus 2, UniProt P0DTD1). The data set can be described thus: SensoLyte 520 SARS-CoV-2 papain-like protease activity assay. The settings on record: for Maximal inhibition of PP (%): maximal observed within tested dose range (2.5-10 µM; pyridoxine 5-20 µM); for Dose at maximal observed inhibition of PP: within tested dose range. It counts as biochemical.

In data set [2] the test system is SARS-CoV-2. The data set can be described thus: Inhibition of SARS-CoV-2-induced CPE in Vero cells (neutral red assay). It counts as cell-based. The settings on record: for Maximal inhibition of CPE (%): MOI 0.1, 48 h, maximal observed within tested dose range (5-10 µM; pyridoxine 10-20 µM); for IC50: Severe acute respiratory syndrome coronavirus 2, three-parameter model, responses constrained to 0-100%; for Dose at maximal observed inhibition of CPE: within tested dose range.

Data set [3] addresses SARS-CoV-2 main protease (MPRO or 3CL) (Severe acute respiratory syndrome coronavirus 2, UniProt P0DTD1). The data set can be described thus: SensoLyte 520 SARS-CoV-2 MPRO activity assay. As to conditions: for Maximal inhibition of MPRO (%): maximal observed within tested dose range (2.5-10 µM; pyridoxine 5-20 µM); for Dose at maximal observed inhibition of MPRO: within tested dose range. It counts as biochemical.

A further data set concerns Vero cells. The data set can be described thus: Toxicity of the drugs alone to Vero cells (cell toxicity study). As to conditions: all tested doses.
Data set [4] concerns SARS-CoV-2. Also noted: method as in Caly et al., 2020. The settings on record: inhibition of viral replication; ref Caly et al., 2020; cited from earlier work.

On to `CC[C@H]1OC(=O)[C@H](C)[C@@H](O[C@H]2C[C@@](C)(OC)[C@@H](O)[C@H](C)O2)[C@H](C)[C@@H](O[C@@H]2O[C@H](C)C[C@H](N(C)C)[C@H]2O)[C@](C)(O)C[C@@H](C)C(=O)[C@H](C)[C@@H](O)[C@]1(C)O` [Erythromycin], for which, in data set [1], the “Maximal inhibition of PP (%)” value is 29.46% and the “Dose at maximal observed inhibition of PP” value is 10.0 µM. Besides, in the data set on SARS-CoV-2 [2], the “Maximal inhibition of CPE (%)” value is given as 76%; the IC50 (in general, the concentration needed to halve the response being measured) worked out at 3.27 µM; the “Dose at maximal observed inhibition of CPE” value worked out at 10 µM. Moreover, in data set [3], the “Maximal inhibition of MPRO (%)” value is 30.51% and the “Dose at maximal observed inhibition of MPRO” value is reported as 2.5 µM.

Regarding `Nc1nc2ncc(CNc3ccc(C(=O)N[C@@H](CCC(=O)O)C(=O)O)cc3)nc2c(=O)[nH]1` [Folic Acid], in data set [1], the “Maximal inhibition of PP (%)” value is given as 31.99% and the “Dose at maximal observed inhibition of PP” value worked out at 5 µM. Further, in the data set on SARS-CoV-2 [2], the “Maximal inhibition of CPE (%)” value was determined as 42% and the “Dose at maximal observed inhibition of CPE” value was determined as 5 µM. Moreover, the “Toxicity to Vero cells” value with Vero cells was “not found to be toxic”. In data set [3], the “Maximal inhibition of MPRO (%)” value was 26.8% and the “Dose at maximal observed inhibition of MPRO” value came to 2.5 µM.

Turning to `Cc1ncc(CO)c(CO)c1O` [Pyridoxine], in data set [1], the “Maximal inhibition of PP (%)” value is 17.46% and the “Dose at maximal observed inhibition of PP” value is on record as 20.0 µM. Besides, in the data set on SARS-CoV-2 [2], the “Maximal inhibition of CPE (%)” value turned out to be 63%, it took 9.29 µM to reach half-maximal inhibition (IC50) and the “Dose at maximal observed inhibition of CPE” value worked out at 20 µM. Besides, in data set [3], the “Maximal inhibition of MPRO (%)” value is 45.17% and the “Dose at maximal observed inhibition of MPRO” value is reported as 20.0 µM.

As to `C=C[C@]1(C)C[C@@H](OC(=O)CS[C@@H]2C[C@H]3CC[C@@H](C2)N3C)[C@]2(C)[C@H](C)CC[C@]3(CCC(=O)[C@H]32)[C@@H](C)[C@@H]1O` [Retapamulin], in data set [1], the “Maximal inhibition of PP (%)” value came to 20.60% and the “Dose at maximal observed inhibition of PP” value was 5 µM. In the data set on SARS-CoV-2 [2], the “Maximal inhibition of CPE (%)” value turned out to be 75%, inhibition was half-maximal at 4.23 µM (IC50) and the “Dose at maximal observed inhibition of CPE” value is 7.5 µM. Moreover, in data set [3], the “Maximal inhibition of MPRO (%)” value came to 33.37% and the “Dose at maximal observed inhibition of MPRO” value is reported as 2.5 µM.

On to Ivermectin, for which, in data set [1], the “Maximal inhibition of PP (%)” value stood at 34.34% and the “Dose at maximal observed inhibition of PP” value came to 10 µM. Moreover, the “Maximal inhibition of CPE (%)” value in the data set with SARS-CoV-2 [2] is 10%. Moreover, the “Reduction in viral load” value in the data set with SARS-CoV-2 [4] was “up to 5,000 fold”. Besides, in data set [3], the “Maximal inhibition of MPRO (%)” value stood at 38.07% and the “Dose at maximal observed inhibition of MPRO” value amounted to 5.0 µM.
